*1 amine or outer side, *2 acyl side, *3 side chain or, on linkers, in order; H or OH if unused. Where a SMILES comes first, the peptide text is derived from it. Side-chain parts run from the residue outwards. [ ]: non-standard residue; d: D form. The star is where a group is joined. dPhe(4-NHCONH2) = NC(=O)Nc1ccc(C[C@@H](N)C(=O)O)cc1; Dihydroorotyl(S) = O=C1C[C@@H](C(=O)*)NC(=O)N1; dPhe(4-NH2) = Nc1ccc(C[C@@H](N)C(=O)O)cc1; dPhe(4-Cl) = N[C@H](Cc1ccc(Cl)cc1)C(=O)O; Phe(4-NH2) = Nc1ccc(C[C@H](N)C(=O)O)cc1; d2Nal = N[C@H](Cc1ccc2ccccc2c1)C(=O)O; Lys(iPr) = CC(C)NCCCC[C@H](N)C(=O)O; NHCH2CH2OCH2CH2OEt = CCOCCOCCN*; d3Pal = N[C@H](Cc1cccnc1)C(=O)O; Methoxycarbamoyl = CONC(=O)*; Nicotinoyl = O=C(c1cccnc1)*; PEG3 = NCCOCCOCCOCCC(=O)O; CO = O=C([*:1])[*:2]; Butyryl = CCCC(=O)*
Assay: Peptide release from amyloid (dialysis experiment)
Conditions: dialysis of 30-d-old samples, 35 d
Procedure: Although amyloid fibrils are very stable, they must follow thermodynamic equilibrium conditions between fibril and monomer. […] A total of 200 μl of 30-d-old GnRH analog (in) was dialyzed 4 ml of 5% D-mannitol (out). A 3.5-kDa cutoff, which is twice the size of the peptides studied, was chosen to ensure that the released particles are most likely monomeric. The peptide release and the remaining aggregates were monitored by fluorescence over 35 d at room temperature.
A 200-μl aliquot of aged GnRH in solution conditions given above was transferred into a 0.6-ml Eppendorf tube with a hole in the cap. To study the effect of heparin on peptide release, a mixture of hormone analog and heparin (1:1 v/v) was incubated overnight in parallel with a half-diluted peptide fibril sample in 5% D-mannitol and 0.01% sodium azide. The hole in the cap of the Eppendorf tube was sealed with a 3.5-kDa molecular weight cutoff (MWCO) membrane. Next, the Eppendorf tube was inserted upside down into a 15-ml Falcon tube containing 4 ml of 5% D-mannitol in water and 0.01% sodium azide. Care was taken to make sure that the membrane was exposed to solutions both in and outside and that any bubbles at the membrane interface were removed. The tubes were then incubated at room temperature. To measure the remaining peptide concentration inside the 0.6-ml Eppendorf tube, a 5-μl aliquot was diluted into 500 μl water with 5% D-mannitol, 0.01% sodium azide, and the fluorescence was measured with excitation at 280 nm and emission in the range of 290–500 nm. The excitation slit width was 2 nm, and emission slit width was 11 nm. To determine the peptide concentration outside the membrane in the 15-ml tube, an aliquot of 250 μl of solution was taken from the releasing medium, diluted into 500 μl final volume by 5% D-mannitol, 0.01% sodium azide, and fluorescence was measured. Following spectra recording, the dialysis system was reassembled as described above. […] The normalized intensity maxima from inside and outside the membrane were plotted as a function of time and fit by an exponential function to extract the half-life of the fibrils and the K off, respectively. […] The extracted half-life, t 1/2, is the time taken, during which the fluorescence signal inside the 0.6-ml Eppendorf tube drops by 50%.

Row | SMILES | stability of fibrils from release profile (in words)
1 | CONC(=O)NCCOCCOCCOCCC(=O)Nc1ccc(C[C@H](NC(=O)[C@H](CO)NC(=O)[C@@H](Cc2cccnc2)NC(=O)[C@@H](Cc2ccc(Cl)cc2)NC(=O)[C@@H](Cc2ccc3ccccc3c2)NC(C)=O)C(=O)N[C@H](Cc2ccc(NC(N)=O)cc2)C(=O)N[C@@H](CC(C)C)C(=O)N[C@@H](CCCCNC(C)C)C(=O)N2CCC[C@H]2C(=O)N[C@H](C)C(N)=O)cc1 [S2, [Aph(CO-(C2H4O)3-C2H4-NH-CO-NH-OCH3)^5]degarelix] (Ac-[d2Nal][dPhe(4-Cl)][d3Pal]S[Phe(4-NH2)]([PEG3-Methoxycarbamoyl])[dPhe(4-NHCONH2)]L[Lys(iPr)]P[dA]-NH2) | form unstable fibrils
2 | CCOCCOCCNC(=O)N[C@H](Cc1ccc2ccccc2c1)C(=O)N[C@H](Cc1ccc(Cl)cc1)C(=O)N[C@H](Cc1cccnc1)C(=O)N[C@@H](CO)C(=O)N[C@@H](Cc1ccc(NC(=O)[C@@H]2CC(=O)NC(=O)N2)cc1)C(=O)N[C@H](Cc1ccc(NC(=O)NOC)cc1)C(=O)N[C@@H](CC(C)C)C(=O)N[C@@H](CCCCNC(C)C)C(=O)N1CCC[C@H]1C(=O)N[C@H](C)C(N)=O [S3, des-Ac-[D-Aph(CO-NH-OCH3)^6]-C2H5-(C2H4O)2-NH-CO-degarelix] ({NHCH2CH2OCH2CH2OEt-CO}-[d2Nal][dPhe(4-Cl)][d3Pal]S[Phe(4-NH2)](Dihydroorotyl(S))[dPhe(4-NH2)](Methoxycarbamoyl)L[Lys(iPr)]P[dA]-NH2) | form very stable amyloids with very little peptide release
3 | CCCC(=O)N[C@H](Cc1ccc2ccccc2c1)C(=O)N[C@H](Cc1ccc(Cl)cc1)C(=O)N[C@H](Cc1cccnc1)C(=O)N[C@@H](CO)C(=O)N[C@@H](Cc1ccc(NC(=O)NOC)cc1)C(=O)N[C@H](Cc1ccc(NC(=O)NOC)cc1)C(=O)N[C@@H](CC(C)C)C(=O)N[C@@H](CCCCNC(C)C)C(=O)N1CCC[C@H]1C(=O)N[C@H](C)C(N)=O [S4, des-Ac-[Aph(CO-NH-OCH3)^5,D-Aph(CO-NH-OCH3)^6]-CH3-(CH2)2-CO-degarelix] (Butyryl-[d2Nal][dPhe(4-Cl)][d3Pal]S[Phe(4-NH2)](Methoxycarbamoyl)[dPhe(4-NH2)](Methoxycarbamoyl)L[Lys(iPr)]P[dA]-NH2) | form very stable amyloids with very little peptide release
4 | CC(=O)N[C@H](Cc1ccc2ccccc2c1)C(=O)N[C@H](Cc1ccc(Cl)cc1)C(=O)N[C@H](Cc1cccnc1)C(=O)N[C@@H](CO)C(=O)N[C@@H](CCCCNC(=O)c1cccnc1)C(=O)N[C@H](CCCCNC(=O)c1cccnc1)C(=O)N[C@@H](CC(C)C)C(=O)N[C@@H](CCCCNC(C)C)C(=O)N1CCC[C@H]1C(=O)N[C@H](C)C(N)=O [S6, Ac-DNal-DCpa-DPal-Ser-Lys(Nic)-DLys(Nic)-Leu-ILys-Pro-DAla-NH2, reference compound] (Ac-[d2Nal][dPhe(4-Cl)][d3Pal]SK(Nicotinoyl)[dK](Nicotinoyl)L[Lys(iPr)]P[dA]-NH2) | form unstable fibrils
5 | CCOCCOCCNC(=O)Nc1ccc(C[C@@H](NC(=O)[C@H](Cc2ccc(NC(=O)[C@@H]3CC(=O)NC(=O)N3)cc2)NC(=O)[C@H](CO)NC(=O)[C@@H](Cc2cccnc2)NC(=O)[C@@H](Cc2ccc(Cl)cc2)NC(=O)[C@@H](Cc2ccc3ccccc3c2)NC(C)=O)C(=O)N[C@@H](CC(C)C)C(=O)N[C@@H](CCCCNC(C)C)C(=O)N2CCC[C@H]2C(=O)N[C@H](C)C(N)=O)cc1 [S11, [DAph(CONH(C2H4O)2-C2H5]degarelix] (Ac-[d2Nal][dPhe(4-Cl)][d3Pal]S[Phe(4-NH2)](Dihydroorotyl(S))[dPhe(4-NH2)]([CO-NHCH2CH2OCH2CH2OEt])L[Lys(iPr)]P[dA]-NH2) | form unstable fibrils
